# PMC10709440, “High-throughput ligand profile characterization in novel cell lines expressing seven heterologous insect olfactory receptors for the detection of volatile plant biomarkers” (Scientific Reports, 2023)
# pEC50: −log10 of the molar value. “And” between values parts separate entries of the source, which are not always exact repeats. Equal values may be shown once. Read-outs that look alike come from different tables or passages of the source.
# What was measured:
# Drosophila OR71a = molecular target: T1, Drosophila OR71a (Drosophila melanogaster, UniProt Q9VUK5); assay: Calcium ion fluorescence (GCaMP6) assay, OR71a stable HEK293 cell line; assay type: cell-based; conditions: for OR71a response (VUAA1-normalized) at 1 μM / OR71a response (VUAA1-normalized) at 10 μM / OR71a response (VUAA1-normalized) at 100 μM / Average response: OR71a cell line; for OR71a response (VUAA1-normalized) at 1 μM: VOC concentration 1 μM; for OR71a response (VUAA1-normalized) at 10 μM: VOC concentration 10 μM; for OR71a response (VUAA1-normalized) at 100 μM: VOC concentration 100 μM; for Average response: VUAA1-normalized response, mean of biological replicates; for DF norm AVERAGE OR71a: threshold 0.05, below shown as 0; for OR71a Average response (VUAA1-normalized): 50 μM VUAA1 = 1
# T1 construct: expressed in transfected cells
# T1 sequence (Q9VUK5 1-378): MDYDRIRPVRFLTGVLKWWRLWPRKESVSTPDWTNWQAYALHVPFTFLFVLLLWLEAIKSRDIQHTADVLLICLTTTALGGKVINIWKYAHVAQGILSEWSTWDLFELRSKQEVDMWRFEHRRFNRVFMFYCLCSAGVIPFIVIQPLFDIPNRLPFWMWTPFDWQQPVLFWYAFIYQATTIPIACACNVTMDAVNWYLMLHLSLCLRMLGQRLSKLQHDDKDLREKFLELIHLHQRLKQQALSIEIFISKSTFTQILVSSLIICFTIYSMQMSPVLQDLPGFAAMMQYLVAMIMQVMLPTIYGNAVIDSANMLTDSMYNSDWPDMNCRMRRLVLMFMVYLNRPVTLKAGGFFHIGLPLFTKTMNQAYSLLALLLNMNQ
# T1 sequence (Q9VNB5 1-486 partner): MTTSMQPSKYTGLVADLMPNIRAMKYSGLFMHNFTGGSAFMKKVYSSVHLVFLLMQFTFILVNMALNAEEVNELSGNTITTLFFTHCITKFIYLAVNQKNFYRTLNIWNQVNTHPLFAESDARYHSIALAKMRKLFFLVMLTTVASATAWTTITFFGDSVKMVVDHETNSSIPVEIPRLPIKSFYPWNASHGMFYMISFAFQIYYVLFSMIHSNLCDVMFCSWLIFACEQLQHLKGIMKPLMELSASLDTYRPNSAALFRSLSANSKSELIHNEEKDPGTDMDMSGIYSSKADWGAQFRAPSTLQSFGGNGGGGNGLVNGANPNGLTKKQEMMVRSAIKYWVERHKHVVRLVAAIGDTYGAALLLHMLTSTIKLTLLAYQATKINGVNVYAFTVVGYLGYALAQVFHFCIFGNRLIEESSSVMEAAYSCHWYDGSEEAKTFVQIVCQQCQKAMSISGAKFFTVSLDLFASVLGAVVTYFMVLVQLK
# Procedure: (§1) These VUAA1 normalized ∆F values were used to compare the different receptors and ligands.
# (§2) The concentration-dependent effect of the reference ligands on their cognate cell lines was examined in more detail. Twelve different ligand concentrations were measured on each cell line in an overall 0.01 μM to 100 μM concentration range with 5 repetitions with three technical replicates each time.
# (§3) Twelve thousand to 18,000 cells were plated into each well of a black wall, transparent bottom 384-well microplate (Greiner) 48 h or 72 h before the measurements and were simultaneously treated with 1 μg/mL doxycycline. […] The plate has 24 columns, thus we could record responses in up to eight different cell lines in each plate. On the day of the experiment, the growth medium was replaced with 20 µL assay buffer/well (140 mM NaCl, 5 mM KCl, 2 mM CaCl2, 1 mM MgCl2, 5 mM HEPES-Na, 20 mM glucose, pH 7.3, 340 mOsm). […] Baseline fluorescence (F0) was recorded for 5 s, after which 7 µL VOC buffer (140 mM NaCl, 5 mM KCl, 2 mM CaCl2, 1 mM MgCl2, 5 mM HEPES-Na, 31 mM glucose, 0.1% DMSO, pH 7.3, 340 mOsm) was injected into each well in one row and the fluorescence response was recorded for an additional 30 s, at a rate of one read/sec. VOC solutions (VOC buffer with 4× concentration of the final measured VOC concentration, 9 µL/well was injected) were measured on the same wells in a second round with the same protocol. Each individual concentration of a specific VOC sample was recorded in three wells for the same cell line on the same microplate. The raw data were exported in xls file format, F0 and FMAX values, and the fluorescence intensity changes (∆F) were calculated in Excel (Microsoft) (Supplementary file Data summary.xlsx) using the following equation: ΔF=FMAX-F0/F0 (see also Fig. 1C). On each plate, we recorded the response of each cell line to 50 µM VUAA1. The average of these ∆F values of each cell line were used to calculate the VUAA1-normalized values for the rest of the plate, by dividing VOC response ∆F values by the average VUAA1 response ∆F value of the corresponding OR cell line. Each VOC-OR combination was measured three times as technical replicates. […] The average of these replicates were used as one ∆F and VUAA1-normalized ∆F in the following analysis.
# (§4) In the next rows we tested the reference VOCs (or other VOCs known to activate the corresponding cell lines), in order to test if all cell lines are responsive. The remaining rows were used to test VOCs with unknown effect.
# (§5) The recorded FMAX, F0, ∆F, VUAA1-normalized ∆F values, as well as the OR name, the name of the tested sample, and the final concentration for each well were copied into supplementary file Data summary.xlsx, that was used to summarize all the plates recorded. Here, the averages of the measurements were calculated for each receptor-VOC-concentration combination.
# Drosophila OR10a = molecular target: T2, Drosophila OR10a (Drosophila melanogaster, UniProt Q9VYZ1); assay: Calcium ion fluorescence (GCaMP6) assay, OR10a stable HEK293 cell line; assay type: cell-based; conditions: for activation at 1 µM / activation at 10 µM / activation at 100 µM: 50 μM VUAA1 = 1, responses not exceeding 0.05 considered 0; for OR10a response (VUAA1-normalized) at 1 μM / OR10a response (VUAA1-normalized) at 10 μM / OR10a response (VUAA1-normalized) at 100 μM: OR10a cell line; for OR10a response (VUAA1-normalized) at 1 μM: VOC concentration 1 μM; for OR10a response (VUAA1-normalized) at 10 μM: VOC concentration 10 μM; for OR10a response (VUAA1-normalized) at 100 μM: VOC concentration 100 μM; for DF norm AVERAGE OR10a: threshold 0.05, below shown as 0
# T2 construct: expressed in transfected cells
# T2 sequence (Q9VYZ1 1-406): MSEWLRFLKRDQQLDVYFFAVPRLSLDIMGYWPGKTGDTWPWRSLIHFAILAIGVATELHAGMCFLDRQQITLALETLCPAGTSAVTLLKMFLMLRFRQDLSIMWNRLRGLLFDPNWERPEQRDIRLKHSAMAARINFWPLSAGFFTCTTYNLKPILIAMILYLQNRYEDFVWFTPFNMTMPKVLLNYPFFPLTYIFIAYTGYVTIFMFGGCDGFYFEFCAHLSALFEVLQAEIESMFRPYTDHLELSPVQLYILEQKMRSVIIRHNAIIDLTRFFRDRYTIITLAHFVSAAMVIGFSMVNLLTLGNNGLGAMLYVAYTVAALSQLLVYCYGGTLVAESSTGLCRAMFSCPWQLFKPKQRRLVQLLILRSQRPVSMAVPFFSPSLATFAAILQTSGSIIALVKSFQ
# T2 sequence (Q9VNB5 1-486 partner): T1 sequence (Q9VNB5 1-486 partner)
# Procedure: as §1, §2, §3, §4, §5
# [1] = ligand concentration 1 (unit not given)
# [2] = ligand concentration 10 (unit not given)
# [3] = ligand concentration 100 (unit not given)
smiles,measurement,setting,value
Cc1ccc(C)cc1 [p-xylene],OR71a response (VUAA1-normalized) at 1 μM,Drosophila OR71a,0.00
same,OR71a response (VUAA1-normalized) at 10 μM,Drosophila OR71a,0.06
same,OR71a response (VUAA1-normalized) at 100 μM,Drosophila OR71a,0.00
same,Average response,Drosophila OR71a; cc. 1 µM,0.00
same,Average response,Drosophila OR71a; cc. 10 µM,0.06
same,Average response,Drosophila OR71a; cc. 100 µM,0.00
same,DF norm AVERAGE OR71a,Drosophila OR71a; [1],0
same,DF norm AVERAGE OR71a,Drosophila OR71a; [2],0.0615
same,DF norm AVERAGE OR71a,Drosophila OR71a; [3],0
same,activation at 1 µM,"Drosophila OR10a; HEK293, read-out: OR10a Average response (VUAA1-normalized), 1 μM VOC",0%
same,activation at 10 µM,"Drosophila OR10a; HEK293, read-out: OR10a Average response (VUAA1-normalized), 10 μM VOC",0%
same,activation at 100 µM,"Drosophila OR10a; HEK293, read-out: OR10a Average response (VUAA1-normalized), 100 μM VOC",6.41%
same,OR10a response (VUAA1-normalized) at 1 μM,Drosophila OR10a,0.00
same,OR10a response (VUAA1-normalized) at 10 μM,Drosophila OR10a,0.00
same,OR10a response (VUAA1-normalized) at 100 μM,Drosophila OR10a,0.0641
same,DF norm AVERAGE OR10a,Drosophila OR10a; [1],0
same,DF norm AVERAGE OR10a,Drosophila OR10a; [2],0
same,DF norm AVERAGE OR10a,Drosophila OR10a; [3],0.06412
COC(=O)c1ccccc1O [methyl salicylate],OR71a Average response (VUAA1-normalized),Drosophila OR71a; 1 μM VOC,0.00
same,OR71a Average response (VUAA1-normalized),Drosophila OR71a; 10 μM VOC,0.01
same,OR71a Average response (VUAA1-normalized),Drosophila OR71a; 100 μM VOC,0.12
same,OR71a response (VUAA1-normalized) at 1 μM,Drosophila OR71a,0.00
same,OR71a response (VUAA1-normalized) at 10 μM,Drosophila OR71a,0.00
same,OR71a response (VUAA1-normalized) at 100 μM,Drosophila OR71a,0.12
same,Average response,Drosophila OR71a; cc. 1 µM,0.00
same,Average response,Drosophila OR71a; cc. 10 µM,0.0108
same,Average response,Drosophila OR71a; cc. 100 µM,0.12
same,DF norm AVERAGE OR71a,Drosophila OR71a; [1],0
same,DF norm AVERAGE OR71a,Drosophila OR71a; [2],0
same,DF norm AVERAGE OR71a,Drosophila OR71a; [3],0.1155
same,pEC50,"Drosophila OR10a; AVERAGE EC50, from the average LOG EC50 of 5 biological replicates, unit inferred",7.12
same,pEC50,"Drosophila OR10a; EC50, FITTED AVERAGE CURVE, fit of the averaged dose-response curve, unit inferred",7.16
same,pEC50,"Drosophila OR10a; EC50, OR10a cell line, fitted Hill equation, Hill coefficient constrained to 1, maximal response max 1",7.10
same,pEC50,"Drosophila OR10a; EC50 AVERAGE (arithmetic average of fitted EC50), average of 5 biological replicates, unit inferred",7.05
same,activation at 1 µM,"Drosophila OR10a; HEK293, 1 μM VOC, read-out: OR10a Average response (VUAA1-normalized)",49%
same,activation at 10 µM,"Drosophila OR10a; HEK293, 10 μM VOC, read-out: OR10a Average response (VUAA1-normalized)",55%
same,activation at 100 µM,"Drosophila OR10a; HEK293, 100 μM VOC, read-out: OR10a Average response (VUAA1-normalized)",95%
same,Emax,"Drosophila OR10a; HEK293, read-out: VUAA1 normalized MAX response",44%
same,"n, FITTED AVERAGE CURVE",Drosophila OR10a; Hill coefficient of the fit of the averaged curve,0.855
same,OR10a response (VUAA1-normalized) at 1 μM,Drosophila OR10a,0.49
same,OR10a response (VUAA1-normalized) at 10 μM,Drosophila OR10a,0.55
same,OR10a response (VUAA1-normalized) at 100 μM,Drosophila OR10a,0.95
same,AVERAGE MAX,Drosophila OR10a; average of 5 biological replicates,0.4437
same,"response, AVERAGE","Drosophila OR10a; concentration 0.008, average of biological replicates",0.06886
same,"response, AVERAGE","Drosophila OR10a; concentration 0.016, average of biological replicates",0.1014
same,"response, AVERAGE","Drosophila OR10a; concentration 0.032, N 1",0.1576
same,"response, AVERAGE","Drosophila OR10a; concentration 0.075, average of biological replicates",0.2051
same,"response, AVERAGE","Drosophila OR10a; concentration 0.15, average of biological replicates",0.2778
same,"response, AVERAGE","Drosophila OR10a; concentration 0.3, average of biological replicates",0.4027
same,"response, AVERAGE","Drosophila OR10a; concentration 0.6, average of biological replicates",0.307
same,"response, AVERAGE","Drosophila OR10a; concentration 1.25, average of biological replicates",0.417
same,"response, AVERAGE","Drosophila OR10a; concentration 2.5, average of biological replicates",0.471
same,"response, AVERAGE","Drosophila OR10a; concentration 5, average of biological replicates",0.4362
same,"response, AVERAGE","Drosophila OR10a; concentration 10, average of biological replicates",0.4759
same,"response, AVERAGE","Drosophila OR10a; concentration 20, average of biological replicates",0.4313
same,"response, AVERAGE","Drosophila OR10a; concentration 40, average of biological replicates",0.3644
same,"MAX, fitted average curve",Drosophila OR10a; fit of the averaged dose-response curve,0.4394
same,MAX (fitted parameter),"Drosophila OR10a; individual biological replicates, normalized response",0.4829 and 0.2572 and 0.5237 and 0.5964 and 0.3582
same,DF norm AVERAGE OR10a,Drosophila OR10a; [1],0.4904
same,DF norm AVERAGE OR10a,Drosophila OR10a; [2],0.5549
same,DF norm AVERAGE OR10a,Drosophila OR10a; [3],0.9525
